Experiments:
Assay type in all cases: in vivo
[1] = system: BALB/c (H-2d) mice; test: Serum β-gal-specific IgG ELISA after i.n. or s.c. immunization with β-gal plus adjuvant; details: i.n., β-gal 30 μg/dose with or without adjuvant 10 μg; end point titers (FIG. 11; FIG. 2)
Protocol: Experimental protocol: six-eight weeks-old female BALB/c (H-2d) mice were purchased from Harlan Winkelmann GmbH (Borchen, Germany) and treated in accordance with local and European Community guidelines. Groups of 5 mice each were immunized on day 1, 14 and 28 with 30 μg of β-gal (Boehringer, Mannheim, Germany), alone or as an admixture with 10 μg c-diGMP or with 10 μpg c-diAMP. For intranasal (i.n.) immunization, 10 μl were applied to each naris, whereas for the s.c. injection β-gal with or without c-diGMP or c-diAMP was resuspended in a volume of 20 μl PBS per animal. Serum samples were collected at day 38 after immunization and stored at −20° C. prior to determination of β-gal-specific antibodies. 96-well Nunc-Immuno MaxiSorp assay plates (Nunc, Roskilde, Denmark) were coated with 100 μl of β-gal (Boehringer, Mannheim, Germany) at 5 μg/ml in 0.05 M carbonate buffer (pH 8.2) per well. Serial two-fold dilutions of sera in PBS with 1% BSA and 0.05% Tween 20 were added (100 μl/well), and plates incubated for 16h at 37° C. After washing, biotinylated γ-chain-specific goat anti-mouse IgG (Sigma Chemie, Deisenhofen, Germany) was added, and plates were incubated for an additional 1 h at 37° C. After four washes, 100 μl of peroxidase-conjugated streptavidin (Pharmingen) was added to cells and plates incubated at 37° C. for 30 min. After four washes, reactions were developed with ABTS in 0.1 M citrate-phosphate buffer (pH 4.35) containing 0.01% H2O2. Results for c-diGMP are shown as OD405 values after serial two-fold dilutions (FIG. 2). […] The effect of c-diGMP as an adjuvant was independent of the route of administration.
In contrast, in the presence of c-diAMP, i.n. administration of β-gal induced very high titers of specific IgG in all mice with titers higher than 500,000 (FIG. 11).
In view of the above in vitro results, additional in vivo studies have been conducted. […] Thus, the capacity of c-diGMP and c-diAMP, respectively, to stimulate efficient humoral immune responses was evaluated, by determining the serum titers of β-gal-specific antibodies in vaccinated mice.

[2] = system: BALB/c (H-2d) mice; test: β-gal-specific IgA in lung and vaginal lavages of immunized mice; details: i.n. immunization, day 38, versus β-gal alone (FIG. 4, FIG. 5)
Protocol: Experimental protocol: at day 38, mice were sacrificed and the final sampling was performed. Vaginal and lung lavages were obtained by flushing the organs with 1 ml of PBS supplemented with 50 mM EDTA, 0.1% BSA, and 10 mM PMSF. Lavages were then centrifuged to remove debris (10 min at 3000×g), and supernatant fluids were stored at −20° C. To determine the concentration of total IgA present in the lung and vaginal lavages, serial dilutions of the corresponding samples were incubated in microtiter plates that were previously coated with goat anti-mouse IgA (Sigma Chemie), as capture antibodies (100 μl/well). Serial dilutions of purified mouse IgA (Sigma Chemie) were used to generate a standard curve.
To investigate the capacity of c-diGMP and c-diAMP, respectively, to stimulate mucosal responses against antigens co-administered by the i.n. and s.c. route, the production of β-gal-specific IgA in lung was analyzed (FIG. 5 for c-diAMP and FIG. 4 for c-diGMP) from immunized animals, immunized according to the protocol described in Example 2.

[3] = system: spleen cells; test: [3H]thymidine proliferation of spleen cells from vaccinated mice restimulated in vitro with β-gal; details: day 38, in vitro restimulation with β-gal
Protocol: Experimental protocol: Spleens were removed and pooled for analysis of cellular immune responses. Cells were grown in RPMI 1640 supplemented with 10% fetal calf serum, 100 U/ml of penicillin, 50 μg/ml of streptomycin, 5×10^−5 M 2-mercaptoethanol and 1 mM L-glutamine (GIBCO BRL, Karlsruhe, Germany) and maintained at 37° C. in a humidified 5% CO2 atmosphere. Spleen cell suspensions were adjusted to 5×10^6 cells/ml in complete medium, cells were seeded with 100 μl per well in a flat-bottomed 96-well microtiter plate (Nunc) and plates were incubated for 4 days in the presence of different concentrations of soluble β-gal. That is, T cell mediated immune responses were investigated at day 38 by measuring the proliferation after in vitro restimulation with β-Gal of cells which have been recovered from spleens before. Said spleen cells were obtained from vaccinated mice—said mice where immunized as described in Example 2—and incubated in the presence of different concentrations of the soluble β-Gal antigen. Each concentration was tested in quadruplicates. During the final 18 h of culture, 1 μCi of [3H]thymidine (Amersham International, Freiburg, Germany) was added to each well. Cells were then harvested on paper filters (Filtermat A; Wallac, Freiburg, Germany) by using a cell harvester (Inotech, Wohlen, Switzerland), and the amount of incorporated [3H]thymidine into the DNA of proliferating cells was determined by a β-scintillation counter (Wallac 1450, Micro-Trilux). The results are expressed as the arithmetic mean of [^3H]thymidine uptake in cpm.
Thirty eight days following vaccination, spleens cells were purified, re-stimulated in vitro in the presence of various amounts of β-galactosidase and their proliferative capacity was estimated by measuring the incorporation of [3H]thymidine into their DNA using a β-scintillation counter.

[4] = system: spleen cells; test: ELISPOT of cytokine producing spleen cells from vaccinated mice; details: i.n.; restimulation with CD8 epitope peptide (FIG. 10)
Protocol: Experimental protocol: Spleens from vaccinated mice were removed and pooled for analysis of cellular immune responses. The protocol for vaccination was identical to the protocol described in Example 2. Cells were grown in RPMI 1640 supplemented with 10% fetal calf serum, 100 U/ml of penicillin, 50 μg/ml of streptomycin, 5×10^−5 M 2-mercaptoethanol and 1 mM L-glutamine (GIBCO BRL, Karlsruhe, Germany) and maintained at 37° C. in a humidified 5% CO2 atmosphere. […]
For coating ELISPOT plates, said plates were incubated with 100 μl/well of purified capture antibody (10 μg/ml in coating buffer) at 4° C. overnight. After 6× washing steps, the plates were blocked with 200 μl/well of complete RPMI-1640 at room temperature for 1 hour. The activated cells were seeded at 100 μl per well and incubate at 37° C., in a 5% CO2 humidified incubator for 24 hours or 48h hours. After 5× washing steps with washing buffer and 1× step with distilled water, 100 μl/well of the biotinylated detection antibody with a concentration of 1 μg/ml in Assay Diluent was added and incubated at room temperature for 2 hrs. After further washing steps 100 μl/well of the AV-HRP at 1/1000 dilution in Assay Diluent was added and incubated at room temperature for 30 minutes. After further washing steps 100 μl/well of AEC Substrate Solution was added and developed at room temperature for 10-60 minutes until visible spots appeared. After washing steps with (3×) with 200 μl/well distilled water, the plates were air-dried and analyzed by counting the spots by an ELISPOT reader. Each concentration was tested in triplicates.

## β-gal: soluble model antigen β-galactosidase (Boehringer), given alone as comparator without adjuvant
[1]
  β-gal specific IgG titer in sera, i.n. administration: very low antibody titers
[2]
  β-gal-specific IgA in lung lavages: weak production
[3]; i.n., low amounts of antigen (FIG. 6)
  proliferation of spleen cells, i.n. immunization: failed to induce detectable cellular proliferation
[3]; s.c., [3H]thymidine (FIG. 6)
  proliferation of spleen cells, s.c. immunization: significant proliferative response
[4]
  IFNγ producing cells, i.n. vaccination: scarcely detectable

Source: US9597391B2, “Cyclic-dinucleotides and its conjugates as adjuvants and their uses in pharmaceutical compositions” (HELMHOLTZ_ZENTRUM FUER INFEKTIONSFORSCHUNG GMBH, priority 2005, dated 2017)
